Where only a bound is given, the exact number is not on record here.

Assay [1] deals with JNK1 (Homo sapiens, UniProt P45983). The assay is described as follows: Fluorescence polarization. The class given is binding. As to conditions: JNK1 Kiapp.
The target of assay [2] is p38α (Homo sapiens, UniProt Q16539). The assay is described as follows: Fluorescence polarization. The class given is binding. The note with it: p38 Kiapp. In general terms: In fluorescence polarisation assays a small probe gives low polarisation when free and higher when bound to something large.
Assay [3] concerns AP-1 promoter mediated transcription. The class given is cell-based. As to conditions: 1 μM, + PMA, 6 h.
The target in assay [4] is ERK2 (Homo sapiens, UniProt P28482). The experiment in a line: Fluorescence polarization. In kind it is binding. The note with it: ERK2 Kiapp, Table 2, different electron withdrawing groups at C2 or cyclopentenone scaffold.
[5] abbreviates: Table 2, different electron withdrawing groups at C2 or cyclopentenone scaffold.

Chain of JNK1 (P45983 whole entry): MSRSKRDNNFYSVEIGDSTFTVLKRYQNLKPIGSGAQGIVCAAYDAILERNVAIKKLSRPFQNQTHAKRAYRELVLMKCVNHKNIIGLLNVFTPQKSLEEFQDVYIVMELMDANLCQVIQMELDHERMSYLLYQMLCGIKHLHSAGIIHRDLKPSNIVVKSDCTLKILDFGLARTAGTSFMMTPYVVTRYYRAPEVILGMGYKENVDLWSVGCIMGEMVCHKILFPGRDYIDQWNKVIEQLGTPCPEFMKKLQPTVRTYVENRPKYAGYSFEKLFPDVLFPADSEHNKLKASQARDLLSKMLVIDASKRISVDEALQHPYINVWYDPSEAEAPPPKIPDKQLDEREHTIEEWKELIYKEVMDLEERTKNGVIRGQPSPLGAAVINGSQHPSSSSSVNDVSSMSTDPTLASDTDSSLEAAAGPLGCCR
Chain of p38α (Q16539 whole entry): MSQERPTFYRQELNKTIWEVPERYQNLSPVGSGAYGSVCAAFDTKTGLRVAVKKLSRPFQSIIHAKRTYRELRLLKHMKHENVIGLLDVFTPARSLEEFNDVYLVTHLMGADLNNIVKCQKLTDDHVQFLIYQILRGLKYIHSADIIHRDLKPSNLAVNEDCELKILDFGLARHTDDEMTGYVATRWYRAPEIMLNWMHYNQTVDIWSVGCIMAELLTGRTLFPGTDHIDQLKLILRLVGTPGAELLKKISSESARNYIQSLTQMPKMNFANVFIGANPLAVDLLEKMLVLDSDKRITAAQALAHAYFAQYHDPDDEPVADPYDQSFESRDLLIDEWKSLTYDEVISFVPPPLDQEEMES
Chain of ERK2 (P28482 whole entry): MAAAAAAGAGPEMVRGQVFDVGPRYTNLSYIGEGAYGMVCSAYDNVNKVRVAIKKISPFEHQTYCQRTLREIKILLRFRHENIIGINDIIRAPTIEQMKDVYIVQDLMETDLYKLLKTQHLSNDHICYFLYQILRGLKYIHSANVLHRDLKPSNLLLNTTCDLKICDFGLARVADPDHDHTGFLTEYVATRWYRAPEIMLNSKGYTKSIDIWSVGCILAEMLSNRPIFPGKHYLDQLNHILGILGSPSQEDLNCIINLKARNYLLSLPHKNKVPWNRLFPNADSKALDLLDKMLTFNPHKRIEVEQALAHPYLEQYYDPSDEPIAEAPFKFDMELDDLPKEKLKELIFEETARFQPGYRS

On to `C#CCCOC(=O)[C@]1(C)C=C(C(=O)OC(C)(C)C)C(=O)CC1` [29S], for which the Ki in assay [1] (Table 4, C4-extended compounds) came out at 2.4 ± 0.3 µM; in assay [2] (Table 4, C4-extended compounds), 1.1 ± 0.1 µM.

For `Cc1cc(-c2cccc(-n3cc(COC(=O)[C@]4(C)C=C(C(=O)OC(C)(C)C)C(=O)CC4)nn3)c2)c(C)c2c1CNCC2` [33S], the Ki turned out to be 8.8 ± 2.6 µM in assay [1] (Table 4, C4-extended compounds) and 2.8 ± 0.7 µM in assay [2] (Table 4, C4-extended compounds).

Consider `Oc1ccc(-c2nc(-c3ccncc3)c(-c3ccc(F)cc3)[nH]2)cc1` [SB202190], for which the “effect on AP-1 mediated transcription” value in assay [3] is recorded as “attenuate”.

With `O=C(Nc1ccc2[nH]nc(-c3ccncc3)c2c1)[C@@H]1CCN(CC(=O)N2CCN(c3ccc(-c4ncccn4)cc3)CC2)C1` [SCH772984], the “effect on AP-1 mediated transcription” value in assay [3] was “attenuate”.

Take `COC(=O)C1=CC(C)(C)CC1=O` [compound 25]: the Ki was 136 ± 14.1 µM in assay [4], more than 200 µM in assay [1] (setting [5]) and 28 ± 2.4 µM in assay [2] (setting [5]).

As for `CC1(C)C=C(C(=O)OC(C)(C)C)C(=O)C1` [compound 26], the Ki in assay [4] was 169 ± 8.7 µM; in assay [1] (setting [5]), more than 200 µM; in assay [2] (setting [5]) it was 27.4 ± 3.3 µM.

Values taken from PMC11452651 (Nature Communications, 2024).
